Tested on: human myeloma cell line MM.1S
Experiment: SILAC acetylated-lysine peptide profiling, HDAC inhibitor vs DMSO (light/heavy ratio)
Format: cell-based
Description: An embodiment of the invention comprises utilizing the SILAC method in order to quantitate changes in protein expression between two or more populations of cells. The SILAC method is a technique based on mass spectrometry that detects differences in protein abundance among samples using non-radioactive isotopic labeling. The SILAC method is known in the art, and described in detail in Ong et al., “Stable Isotope Labeling by Amino Acids in Cell Culture, SILAC, as a Simple and Accurate Approach to Expression Proteomics”, Molecular & Cellular Proteomics, vol. 1, pp. 376-386 (2002), which is incorporated herein by reference in its entirety.
Briefly, the SILAC method involves growing two populations of cells in cell culture. The first population of cells is grown in growth media containing normal amino acids (“normal media”). The second population of cells is grown in media lacking a standard essential amino acid (such as lysine), but is then supplemented with a non-radioactive, isotopically labeled form of that essential amino acid (such as lysine labeled with ^13C atoms, rather than normal ^12C atoms), which is called “heavy media”. When the two populations of cells are each growing in the medium, they incorporate the amino acids into all of their proteins. The growth of cells maintained in the heavy media is no different from that in normal media. All peptides containing the heavy amino acids are heavier than their normal counterparts. The cells from each of the two populations of cells are lysed. The lysates from each of the two cell populations are then combined. The combined cell lysates are then analyzed by mass spectrometry. Pairs of chemically identical peptides of different stable isotope composition can be differentiated in a mass spectrometer due to their difference in mass. The ratio of peak intensities in the mass spectrum for such peptide pairs reflects the abundance ratio for the two proteins.
This example describes SILAC studies that were performed to compare the effects of three different HDAC inhibitors (Compound A, Compound B, and tubastatin A) to a control on a human multiple myeloma cell line. The HDAC inhibitors were also compared amongst themselves to determine differences in their effects.
A human myeloma cell line MM.1S was grown using either ^12C (light) or ^13C (heavy) lysine containing culture medium. The “heavy” cells were treated with DMSO as the control, and the “light” cells were treated with a single HDAC inhibitor at 37° C. for 6 hours. The heavy and light cells were lysed, and the lysates were mixed in 1:1 ratio and digested with the protease trypsin. The acetylated lysine containing peptides (due to the action of the HDAC inhibitor) in the digested peptide pool were captured by a non-specific anti-acetylated lysine antibody cocktail (the antibodies identify both light and heavy acetylated peptides), and subjected to mass spectrometry analysis in order to identify thousands of individual peptides.
Thousands of peptides were identified in pairs (^12C and ^13C) due to their known mass differences. The amino acid sequence and quantitative ratio (Light/Heavy) of a given peptide in two differentially treated cell lysates were then determined and annotated with their possible protein (gene) sources.
As stated above, three HDAC inhibitors (Compound A, Compound B, and Tubastatin A) were used. Thus, the SILAC method was performed three times, with a different HDAC inhibitor compared to a control each time. Accordingly, there are three pairs of quantitative data in the table below, i.e., Compound A:DMSO, Compound B:DMSO, and Tubastatin A:DMSO. A cut-off of 1.30 fold of change (increase or decrease) was then used to determine “changed” or “+” in the table, and any peptides with a fold of change less than 1.3 fold were determined to be “unchanged” or “0” in the table. Those peptides that were not identified were marked as “NA” in the table. […]

In the case of `O=C(NO)c1cnc(NC2(c3cccc(F)c3)CCCCC2)nc1` [Compound B, 2-((1-(3-fluorophenyl)cyclohexyl)amino)-N-hydroxypyrimidine-5-carboxamide], the “light to heavy ratio (L/H ratio) of acetylated peptide TACAINK(ac)VLMGR (SEQ ID NO: 584)” value (Isoform 1 of Protein FAM98A [297], gene FAM98A, inhibitor:DMSO) is reported as 0.00 log 2, the “light to heavy ratio (L/H ratio) of acetylated peptide VLSK(ac)[…] (SEQ ID NO: 294)” value (Isoform 1 of Protein SET [154], SET, drug:DMSO) is reported as 0.00 log 2 and the “light to heavy ratio (L/H ratio) of acetylated peptide […](ac)ALK (SEQ ID NO: 349)” value (Isoform 1 of RNA-binding protein with serine-rich domain 1 [218], RNPS1, drug:DMSO) is reported as −0.46 log 2. The “light to heavy ratio (L/H ratio), log 2 scale, acetylated peptide […](ac)TDQAQDVK (SEQ ID NO: 765)” value (Isoform 1 of Signal recognition particle 9 kDa protein [52], gene SRP9, drug:DMSO) was 0.00, the “light to heavy ratio (L/H ratio) of acetylated peptide VLISFK(ac)ANDIEK (SEQ ID NO: 363)” value (Isoform 2 of Actin-related protein 2/3 complex subunit 5 [90], ARPC5, drug:DMSO) was 0.42 log 2 and the “light to heavy ratio (L/H ratio) of acetylated peptide TMSCSDK(ac)ILR (SEQ ID NO: 323)” value (Isoform 2 of Double-stranded RNA-specific adenosine deaminase [1013], ADAR, drug:DMSO) was −0.65 log 2. The “light to heavy ratio (L/H ratio) of acetylated peptide […](ac)[…] (SEQ ID NO: 336)” value (Isoform 2 of Fibronectin type-III domain-containing protein 3A [507], FNDC3A, drug:DMSO) was 0.40 log 2, the “light to heavy ratio (L/H ratio) of acetylated peptide K(ac)[…] (SEQ ID NO: 369)” value (Isoform 2 of Huntingtin-interacting protein K [35], C15orf63, drug:DMSO) was 1.00 log 2 and the “light to heavy ratio (L/H ratio) of acetylated peptide GAK(ac)PVVVLQK (SEQ ID NO: 611)” value (Isoform 2 of Nipped-B-like protein [1000], gene NIPBL, inhibitor:DMSO) was 0.00 log 2. The “light to heavy ratio (L/H ratio) of acetylated peptide LIAGNK(ac)[…] (SEQ ID NO: 512)” value (Isoform 2 of Nuclear factor related to kappa-B-binding protein [1262], gene NFRKB, inhibitor:DMSO) was 0.00 log 2, the “light to heavy ratio (L/H ratio) of acetylated peptide […](ac)K (SEQ ID NO: 626)” value (Isoform 2 of Septin-7 [207], gene, inhibitor:DMSO) was 0.00 log 2 and the “light to heavy ratio (L/H ratio) of acetylated peptide YQQFK(ac)DFQR (SEQ ID NO: 258)” value (Isoform 2 of Spliceosome RNA helicase DDX39B [349], SNORD84, DDX39B, drug:DMSO) was 0.00 log 2. For the same compound, the “light to heavy ratio (L/H ratio) of acetylated peptide GLCEK(ac)PLASAAAK (SEQ ID NO: 536)” value (Isoform 2 of Transportin-3 [513], gene TNPO3, inhibitor:DMSO) was 0.00 log 2, the “light to heavy ratio (L/H ratio), log 2 scale, acetylated peptide LEPLK(ac)PLK (SEQ ID NO: 772)” value (Isoform 3 of Proline-rich protein 12 [1223], gene PRR12, drug:DMSO) was 0.00 and the “light to heavy ratio (L/H ratio) of acetylated peptide […](ac)FLK (SEQ ID NO: 326)” value (Isoform 5 of Transcriptional regulator ATRX [812], ATRX, drug:DMSO) was 0.89 log 2. The “light to heavy ratio (L/H ratio), log 2 scale, acetylated peptide YNDPIYVK(ac)LEK (SEQ ID NO: 764)” value (Isoform A of AP-1 complex subunit beta-1 [335], gene AP1B1, drug:DMSO) was 0.00, the “light to heavy ratio (L/H ratio) of acetylated peptide MVAAAK(ac)YAR (SEQ ID NO: 324)” value (Isoform Heart of ATP synthase subunit gamma mitochondrial [55], ATP5C1, drug:DMSO) was −0.80 log 2 and the “light to heavy ratio (L/H ratio) of acetylated peptide VPNDK(ac)YYGAQTVR (SEQ ID NO: 625)” value (Isoform Mitochondrial of Fumarate hydratase mitochondrial [66], gene FH, inhibitor:DMSO) was 0.00 log 2. The “light to heavy ratio (L/H ratio) of acetylated peptide MMVAGFK(ac)K (SEQ ID NO: 339)” value (Isoform Short of Heterogeneous nuclear ribonucleoprotein U [524], HNRNPU, drug:DMSO) was −0.40 log 2, the “light to heavy ratio (L/H ratio) of acetylated peptide APQCLGK(ac)FIEIAAR (SEQ ID NO: 338)” value (Isoform Short of Heterogeneous nuclear ribonucleoprotein U [546], HNRNPU, drug:DMSO) was 0.75 log 2 and the “L/H ratio of acetylated peptide” value (K(ac)GPSVQKR (SEQ ID NO: 413), Isoform 1 of Protein lin-28 homolog B [240], LIN28B) was 0.47 log 2. For the same compound, the “light to heavy ratio (L/H ratio) of acetylated peptide, log 2 scale” value (K(ac)[…] (SEQ ID NO: 152), Eukaryotic translation initiation factor 5A-2 [68], EIF5A2) was 0.00, the “light to heavy ratio (L/H ratio) of acetylated peptide, log 2 scale” value (K(ac)[…] (SEQ ID NO: 164), Similar to nonhistone chromosomal protein HMG-1 [30], HMGB1P4) was 0.00 and the “light to heavy ratio (L/H ratio) of acetylated peptide, log 2 scale” value (K(ac)[…] (SEQ ID NO: 246), Endoplasmin [270], HSP90B1) was 0.00. The “L/H ratio of acetylated peptide” value (K(ac)[…] (SEQ ID NO: 373), T-complex protein 1 subunit zeta [280], CCT6A) was 0.67 log 2, the “L/H ratio of acetylated peptide” value (KDFIK(ac)TTVK (SEQ ID NO: 388), Protein DEK [367], DEK) was 0.38 log 2 and the “L/H ratio of acetylated peptide” value (KK(ac)FLCVTK (SEQ ID NO: 411), Kelch repeat and BTB domain-containing protein 8 [178], KBTBD8) was 1.00 log 2. The “light to heavy ratio (L/H ratio) of acetylated peptide, log 2 scale” value (KLPK(ac)[…] (SEQ ID NO: 198), Ras-related protein Rab-5C [184], RAB5C) was 0.00, the “L/H ratio of acetylated peptide” value (KPEENPASK(ac)FSSASK (SEQ ID NO: 391), Eukaryotic translation initiation factor 4B [586], EIF4B) was 0.53 log 2 and the “L/H ratio of acetylated peptide” value (KSEDTISK(ac)MNDFMR (SEQ ID NO: 409), Isoform 1 of Gamma-interferon-inducible protein 16 [451], IFI16) was −0.57 log 2. The “light to heavy ratio (L/H ratio) of acetylated peptide, log 2 scale” value (KTPCGEGSK(ac)TWDR (SEQ ID NO: 245), 40S ribosomal protein S20 [75], SNORD54, RPS20) was 0.00, the “light to heavy ratio (L/H ratio) of acetylated peptide IVADK(ac)DYSVTANSK (SEQ ID NO: 317)” value (L-lactate dehydrogenase B chain [82], LDHB, drug:DMSO) was 0.00 log 2 and the “L/H ratio of acetylated peptide” value (LCK(ac)YIYAK (SEQ ID NO: 390), Eukaryotic translation initiation factor 3 subunit C [553], EIF3C, EIF3CL) was 0.45 log 2.
